Source: patent US8017611B2, “Pyridine and pyrazine derivatives -083” (AstraZeneca AB, priority 2007, dated 2011)
Like-named read-outs stand apart in the source and are kept apart here.

Target: T1, cMet expressed on MKN45 cells (Homo sapiens, UniProt P08581)
T1 construct: endogenous in cells; host or cells: MKN45
Test: Cellular c-Met inhibition assay, Test (d)
Assay type: cell-based
Description: These and other assays can be used to indicate the ability of a test compound to inhibit c-Met mediated cellular signalling in mammalian cell lines, for example the human tumour cell line MKN45. This is achieved by measuring the amount of phosphorylated c-Met within a cell following compound treatment.
MKN45 cells were routinely passaged in DMEM (Gibco BRL, product number 41966-029) plus 10% foetal calf serum (FCS), 1% L-glutamine (Gibco BRL, product number 25030024), to a confluence not greater than 85%. To undertake the assay, MKN45 cells were seeded at 2×10^4 cells/well in DMEM plus 0.5% foetal calf serum, 1% L-glutamine in 96 well plates (Costar, product number 3904) and incubated at 37° C. (+5% CO2) in a humidified incubator. Once the cells had fully adhered (typically following overnight incubation) plates were dosed with 25 μl compound (diluted from 10 mM stock in DMSO using serum free DMEM) and the plates were returned to a humidified 37° C. (+5% CO2) incubator for one hour. Following incubation the cells were fixed by adding formaldehyde (4% final concentration) and incubating at room temperature for 20 minutes. […] The plates were read using an Arrayscan II (Cellomics). […]

T1 sequence (P08581 25-1390): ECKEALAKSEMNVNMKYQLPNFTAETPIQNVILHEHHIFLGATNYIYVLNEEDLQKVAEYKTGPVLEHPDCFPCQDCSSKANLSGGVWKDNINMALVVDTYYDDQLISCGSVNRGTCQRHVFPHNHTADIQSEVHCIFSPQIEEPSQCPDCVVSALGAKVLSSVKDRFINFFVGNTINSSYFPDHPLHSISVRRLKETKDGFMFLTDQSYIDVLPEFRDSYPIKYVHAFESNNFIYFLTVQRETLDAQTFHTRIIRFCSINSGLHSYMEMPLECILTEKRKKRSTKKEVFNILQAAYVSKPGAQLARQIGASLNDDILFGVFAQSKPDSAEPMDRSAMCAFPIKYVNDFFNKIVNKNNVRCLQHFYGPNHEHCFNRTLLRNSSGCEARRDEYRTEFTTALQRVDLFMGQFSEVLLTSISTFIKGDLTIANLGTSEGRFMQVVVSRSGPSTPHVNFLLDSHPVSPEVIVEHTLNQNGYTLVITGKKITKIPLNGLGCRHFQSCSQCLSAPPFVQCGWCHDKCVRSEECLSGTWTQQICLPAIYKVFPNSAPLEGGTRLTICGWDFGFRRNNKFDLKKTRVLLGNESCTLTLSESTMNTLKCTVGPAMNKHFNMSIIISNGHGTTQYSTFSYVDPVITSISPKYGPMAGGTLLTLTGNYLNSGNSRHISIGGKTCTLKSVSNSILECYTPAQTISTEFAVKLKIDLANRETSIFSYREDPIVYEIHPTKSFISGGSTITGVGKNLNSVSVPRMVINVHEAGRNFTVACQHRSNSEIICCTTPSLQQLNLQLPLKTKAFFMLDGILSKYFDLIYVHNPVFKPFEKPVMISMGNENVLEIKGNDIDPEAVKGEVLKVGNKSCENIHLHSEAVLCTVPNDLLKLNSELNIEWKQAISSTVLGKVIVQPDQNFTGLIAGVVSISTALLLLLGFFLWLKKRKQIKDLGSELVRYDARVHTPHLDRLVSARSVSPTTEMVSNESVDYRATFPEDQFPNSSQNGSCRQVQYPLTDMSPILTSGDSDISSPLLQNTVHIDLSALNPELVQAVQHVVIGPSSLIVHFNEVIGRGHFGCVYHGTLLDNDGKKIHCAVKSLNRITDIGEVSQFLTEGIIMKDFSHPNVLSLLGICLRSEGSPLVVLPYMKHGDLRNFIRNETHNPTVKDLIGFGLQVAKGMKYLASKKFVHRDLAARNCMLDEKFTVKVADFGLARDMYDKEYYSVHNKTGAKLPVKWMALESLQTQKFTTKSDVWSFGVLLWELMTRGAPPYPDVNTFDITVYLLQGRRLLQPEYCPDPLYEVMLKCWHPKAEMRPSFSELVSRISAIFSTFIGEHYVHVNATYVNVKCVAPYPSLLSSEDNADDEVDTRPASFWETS

IC50 (MKN45 cells, read-out: IC50 versus cellular phospho-c-Met (pYpYpY1230/4/5)): ~590 nM
IC50 (later recalculated, read-out: IC50 versus cellular phospho-c-Met (pYpYpY1230/4/5), mean recalculated from a larger number of replicates): 950 nM
SMILES: CN1CCC(n2cc(-c3cnc(N)c(-c4nc5ccc(F)cc5o4)c3)cn2)CC1 [Example 7.2]
